We go through 26 compounds from patent publication US8372971B2, “Heterocyclic compounds and methods of use” (TargeGen, Inc., priority 2004, dated 2013).

Assay [1] deals with p-MEK and p-ERK levels in HUVECs. The experiment in a line: Western Blot, inhibition of MAPK pathway in cellular assay (Example 105). Format: cell-based, human. The conditions noted are these: 50 ng/ml VEGF or FGF. The protocol:
Some compounds described by the general structure (B) were tested for inhibition of MAPK pathway in cellular assay. Western Blot: Early passage primary human umbilical vein endothelial cells (HUVECs) were maintained in EGM-2 containing SingleQuots (Cambrex, East Rutherford, N.J.), 10% FBS, 10 mM HEPES, and 50 μg/ml gentamicin. Prior to treatment of the cells with inhibitor, the HUVECs were starved for 18 h by replacing serum-containing complete media with serum-free and SingleQuot-free media. The starved cells were pre-treated with inhibitors for 60 min at various concentrations (0-20 μM). Next the HUVECs were treated with 50 ng/ml VEGF or FGF (Peprotech, Rocky Hill, N.J.) for 6 min and the cells were immediately washed with ice-cold PBS. Cells were lysed with ice-cold RIPA buffer containing 100 mM Tris pH 7.5, 150 mM NaCl, 1 mM EDTA, 1% deoxycholate, 1% Triton X-100, 0.1% SDS, 2 mM PMSF, one Complete-Mini protease inhibitor tablet (Roche, Indianapolis, Ind.; 1 tablet/7 ml of lysis buffer) and the phophatase inhibitors NaF (500 mM) and orthovanadate (1 mM). The cells were scraped and lysates transferred and centrifuged at 15,000 g for 10 main. Supernatants were transferred to new tubes and protein concentration was quantitated using the BCA protein reagent (Pierce, Rockford, Ill.). Cell lysates containing 20 μg of total protein were separated by 10% SDS-PAGE, transferred to nitrocellulose, and blocked in 5% milk in TBST. Anti phospho-ERK Thr 202/Tyr 204 (Cell Signaling, Beverly, Mass.), anti-phospho-MEK Ser217/221 (Cell Signaling), and c-Raf (BD Biosciences Pharmingen, San Diego, Calif.) used as primary antibodies were detected with horseradish peroxidase-conjugated goat anti-mouse or rabbit secondary antibodies and bands were visualized using the SuperSignal West Pico chemiluminescence reagent system (Pierce) and Kodak X-ray film (Rochester, N.Y.).
A general note: Immunoblotting shows a protein as a band on a membrane.

In the next assay the test system is HUVECs. The experiment in a line: XTT cell viability assay (Example 106). The assay is classed as cell-based, human. The conditions noted are these: Homo sapiens, HUVEC, 72 hours, read-out: Inhibition of HUVEC cell prolifiration (IC50). As for the experimental part:
Some compounds described by the general structure (B) were tested for cell viability. XTT assay: HUVECs were seeded at 10,000 cells/well of a tissue culture treated 96-well plate treated with collagen type I and grown overnight in the complete EGM-2 media as described above. The following morning, the inhibitors were serial diluted with DMSO and added to the cells with a final DMSO concentration of 1%. After 72 hours cell viability was measured with an XTT assay (Sigma, St. Louis, Mo.). The cells were also photographed to compare morphological differences to the XTT trends observed. Determination of the IC50 values was performed with quantitative software (Prism software package, GraphPad Software, San Diego Calif.).
In general terms: Tetrazolium assays rely on reduction of a dye to a coloured formazan, in cell work by metabolically active cells.

Counter-ions that a name gives are not always drawn.

As for `Nc1ccc(Oc2ccc(Nc3nnc(-c4ccc(Cl)c(C(F)(F)F)c4)[nH]3)cc2)nn1` [6-[4-({5-[4-chloro-3-(trifluoromethyl)phenyl]-4H-1,2,4-triazol-3-yl}amino)phenoxy]pyridazin-3-amine trifluoroacetate salt], the “Western Blot” value in assay [1] (at 5 uM) is given as “active at 5 uM”. In addition, the IC50 in the assay with HUVECs was over 40 µM. On to `FC(F)(F)c1cc(Nc2nnc(-c3ccc(Oc4ccncc4)cc3)o2)ccc1Cl` [N-[4-chloro-3-(trifluoromethyl)phenyl]-5-[4-(pyridin-4-yloxy)phenyl]-1,3,4-oxadiazol-2-amine trifluoroacetate salt], for which the “Western Blot” value in assay [1] (at 5 uM) is listed as “active at 5 uM”. In addition, the IC50 with HUVECs is 8.6 µM. Regarding `Nc1cc(Oc2ccc(-c3nnc(Nc4ccc(Cl)cc4)o3)cc2)nc(N)n1` [6-(4-{5-[(4-chlorophenyl)amino]-1,3,4-oxadiazol-2-yl}phenoxy) pyrimidine-2,4-diamine], in assay [1] (at 5 uM), the “Western Blot” value is on record as “active at 5 uM”. Further, the IC50 in the assay with HUVECs was found to be 2.6 µM. `FC(F)(F)c1cc(Nc2nnc(-c3cccc(Oc4ccncc4)c3)[nH]2)ccc1Cl` [(4-chloro-3-trifluoromethyl-phenyl)-{5-[3-(pyridin-4-yloxy)-phenyl]-4H-[1,2,4]triazol-3-yl}-amine trifluoroacetic acid salt]: the “Western Blot” value in assay [1] (at 5 uM) is recorded as “active at 5 uM”. Also, in the assay with HUVECs, the IC50 is 1.79 µM.

`Clc1cccc(Nc2nnc(-c3ccc(Oc4cncnc4)cc3)o2)c1` [5-[4-(Pyrimidin-5-yloxy)phenyl]-N-[3-chloro-phenyl]-1,3,4-oxadiazol-2-amine]: the “Western Blot” value in assay [1] (at 5 uM) is recorded as “active at 5 uM”. Further, the IC50 with HUVECs is about 20 µM. For the compound `Nc1cc(Oc2ccc(-c3nnc(Nc4ccc(OC(F)(F)F)cc4)[nH]3)cc2)nc(N)n1` [6-{4-[5-(4-trifluoromethoxy-phenylamino)-4H-[1,2,4]triazol-3-yl]-phenoxy}-pyrimidine-2,4-diamine trifluoroacetic acid salt], in the assay with HUVECs, the IC50 amounted to 6 µM. `O=C(Nc1nnc(-c2ccc(Oc3cccnc3)cc2)o1)c1cc(C(F)(F)F)cc(Cl)c1F` [3-Chloro-2-fluoro-N-{5-[4-pyridin-3-yloxy)phenyl]-1,3,4-oxadiazol-2-yl}-5-trifluoromethyl)-benzamide]: in assay [1] (at 10 uM), the “Western Blot” value is “not active at 10 uM”. Besides, in the assay on HUVECs, the IC50 was over 40 µM. With `Clc1ccc(Nc2nnc(-c3ccc(Oc4cccnc4)cc3)o2)cc1` [5-[4-(Pyridin-3-yloxy)phenyl]-N-[4-chloro-phenyl]-1,3,4-oxadiazol-2-amine], the “Western Blot” value in assay [1] (at 10 uM) is listed as “active at 10 uM”. In the assay on HUVECs, the IC50 amounted to 9.6 µM. For the compound `CNC(=O)c1cc(Oc2cccc(-c3nnc(Nc4ccc(Cl)c(C(F)(F)F)c4)[nH]3)c2)ccn1` [4-{3-[5-(4-chloro-3-trifluoromethyl-phenylamino)-4H-[1,2,4]triazol-3-yl]-phenoxy}-pyridine-2-carboxylic acid methylamide trifluoroacetic acid salt], the IC50 in the assay with HUVECs was over 20 µM. `FC(F)(F)c1ccc(Cl)c(Nc2nnc(-c3ccc(Oc4cncnc4)cc3)o2)c1` [5-[4-(Pyrimidin-5-yloxy)phenyl]-N-[2-chloro-5-(trifluoromethyl)-phenyl]-1,3,4-oxadiazol-2-amine]: the IC50 with HUVECs was about 20 µM. Take `FC(F)(F)c1cc(Nc2nnc(-c3ccc(Oc4cncnc4)cc3)o2)ccc1Cl` [N-[4-chloro-3-(trifluoromethyl)phenyl]-5-[4-(pyrimidin-5-yloxy)phenyl]-1,3,4-oxadiazol-2-amine trifluoroacetate salt]: the “Western Blot” value in assay [1] (at 5 uM) is reported as “active at 5 uM”. The IC50 with HUVECs is 9.65 µM. As for `O=C(Nc1nnc(-c2ccc(Oc3cccnc3)cc2)o1)c1ccc(Br)cc1` [4-Bromo-N-{5-[4-(pyridin-3-yloxy)phenyl]-1,3,4-oxadiazol-2-yl}-benzamide], the “Western Blot” value in assay [1] (at 10 uM) is recorded as “not active at 10 uM”. Moreover, the IC50 in the assay on HUVECs is over 40 µM.

Regarding `Clc1ccc(Nc2nnc(-c3ccc(Oc4cncnc4)cc3)o2)cc1` [5-[4-(Pyrimidin-5-yloxy)phenyl]-N-[4-chloro-phenyl]-1,3,4-oxadiazol-2-amine], in assay [1] (at 5 uM), the “Western Blot” value is “active at 5 uM”. For the same compound, the IC50 in the assay with HUVECs is over 20 µM. Consider `Nc1ccc(Oc2ccc(-c3nnc(Nc4ccc(Cl)c(C(F)(F)F)c4)[nH]3)cc2)nn1` [6-{4-[5-(4-chloro-3-trifluoromethyl-phenylamino)-4H-[1,2,4]triazol-3-yl]-phenoxy}-pyridazin-3-ylamine trifluoroacetic acid salt], for which the IC50 in the assay on HUVECs amounted to 1.79 µM. Turning to `FC(F)(F)c1cc(-c2nnc(Nc3ccc(Oc4cncnc4)cc3)[nH]2)ccc1Cl` [5-[4-chloro-3-(trifluoromethyl)phenyl]-N-[4-(pyrimidin-5-yloxy)phenyl]-4H-1,2,4-triazol-3-anine trifluoroacetate salt], in assay [1] (at 5 uM), the “Western Blot” value is given as “active at 5 uM”. The IC50 in the assay on HUVECs is over 10 µM. In the case of `Nc1cc(Oc2ccc(-c3nnc(Nc4cc(C(F)(F)F)ccc4Cl)o3)cc2)nc(N)n1` [6-(4-{5-[(2-chloro-5-trifluoromethyl-phenyl)amino]-1,3,4-oxadiazol-2-yl}phenoxy)pyrimidine-2,4-diamine], the IC50 in the assay on HUVECs was about 20 µM.

`FC(F)(F)c1cc(-c2nnc(Nc3ccc(Oc4cccnc4)cc3)[nH]2)ccc1Cl` [5-[4-chloro-3-(trifluoromethyl)phenyl]-N-[4-(pyridine-3-yloxy)phenyl]-4H-1,2,4-triazol-3-amine trifluoroacetate salt]: the “Western Blot” value in assay [1] (at 5 uM) is recorded as “active at 5 uM”. In addition, in the assay on HUVECs, the IC50 is over 40 µM. As to `CNC(=O)c1cc(Oc2ccc(-c3nnc(Nc4ccc(Cl)c(C(F)(F)F)c4)[nH]3)cc2)ccn1` [4-{4-[5-(4-chloro-3-trifluoromethyl-phenylamino)-4H-[1,2,4]triazol-3-yl]-phenoxy}-pyridine-2-carboxylic acid methylamide trifluoroacetic acid salt], the “Western Blot” value in assay [1] (at 10 uM) is listed as “active at 10 uM”. Moreover, the IC50 in the assay with HUVECs is 2.85 µM.

`FC(F)(F)c1cc(Nc2nnc(-c3ccc(Oc4cccnc4)cc3)o2)ccc1Cl` [N-[4-chloro-3-(trifluoromethyl)phenyl]-5-[4-(pyridin-3-yloxy)phenyl]-1,3,4-oxadiazol-2-amine trifluoroacetate salt]: the “Western Blot” value in assay [1] (at 5 uM) is on record as “active at 5 uM”. In the assay on HUVECs, the IC50 is 1.72 µM. As to `Br.Nc1nnc(-c2ccc(Oc3cccnc3)cc2)o1` [5-[4-(Pyridin-3-yloxy)phenyl]-1,3,4-oxadiazol-2-amine hydrobromide salt], the “Western Blot” value in assay [1] (at 10 uM) is reported as “not active at 10 uM”. The IC50 with HUVECs was over 40 µM. For `FC(F)(F)c1cc(-c2nnc(Nc3ccc(Oc4ccncc4)cc3)[nH]2)ccc1Cl` [5-[4-chloro-3-(trifluoromethyl)phenyl]-N-[4-(pyridine-4-yloxy)phenyl]-4H-1,2,4-triazol-3-amine trifluoroacetate salt], in the assay with HUVECs, the IC50 was over 40 µM. For the compound `CNC(=O)c1cc(Oc2ccc(-c3nnc(Nc4ccc(OC(F)(F)F)cc4)[nH]3)cc2)ccn1` [4-{4-[5-(4-trifluoromethoxy-phenylamino)-4H-[1,2,4]triazol-3-yl]-phenoxy}-pyridine-2-carboxylic acid methylamide trifluoroacetic acid salt], the IC50 in the assay on HUVECs is over 40 µM. Turning to `CNC(=O)c1cc(Oc2ccc(Nc3nnc(-c4ccc(OC(F)(F)F)cc4)[nH]3)cc2)ccn1` [4-{4-[5-(4-trifluoromethoxy-phenyl)-4H-[1,2,4]triazol-3-ylamino]-phenoxy}-pyridine-2-carboxylic acid methylamide trifluoroacetic acid salt], the IC50 in the assay on HUVECs turned out to be 2.2 µM. For `Nc1ccc(Oc2ccc(-c3nnc(Nc4ccc(OC(F)(F)F)cc4)[nH]3)cc2)nn1` [6-{4-[5-(4-trifluoromethoxy-phenylamino)-4H-[1,2,4]triazol-3-yl]-phenoxy}-pyridazin-3-ylamine trifluoroacetic acid salt], the IC50 with HUVECs was over 20 µM. For the compound `CNC(=O)c1cc(Oc2ccc(Nc3nnc(-c4ccc(Cl)c(C(F)(F)F)c4)[nH]3)cc2)ccn1` [4-[4-({5-[4-chloro-3-(trifluoromethyl)phenyl]-4H-1,2,4-triazol-3-yl}amino)phenoxy]-N-methylpyridine-2-carboxamide trifluoroacetate salt], in the assay on HUVECs, the IC50 was over 40 µM. In the case of `FC(F)(F)Oc1ccc(Nc2nnc(-c3ccc(Oc4ccncc4)cc3)[nH]2)cc1` [{5-[4-(pyridin-4-yloxy)-phenyl]-4H-[1,2,4]triazol-3-yl]-(4-trifluoromethoxy-phenyl)-amine trifluoroacetic acid salt], in the assay with HUVECs, the IC50 was over 40 µM.
